US20150327444A1, “PROCESS FOR THE OVERPRODUCTION OF SHIKIMIC ACID AND PHENOLIC ACIDS IN FRUIT AND VEGETABLE CROPS” (Instituto Tecnologico y de Estudios Superiores de Monterry, priority 2013, published 2015)

What was measured:
carrots (Daucus carota) [1] = assay: Effect of grinding on SA and PC in wounding-stressed, glyphosate-sprayed carrot tissue (Example 8)
Procedure: (§1) The plant material used in this example comprised carrots (Daucus carota) obtained from a local supermarket (Monterrey, N. L., Mexico), which were washed and disinfected with chlorinated water in a concentration of 200 ppm, pH 6.5, in a ratio of 1:3 kg of plant material:liters of chlorinated water, for 10 min.
(§2) This stage was carried out by grating the carrot with a commercial vegetable grater. Stressed grated carrots having a diameter of 0.7 cm were obtained.
(§3) In this stage, the stressed grated plant tissue was treated by spraying (commercial sprayer) 100 mL of a concentrated solution of glyphosate (482 g/L).
The treated grated material was incubated at 25° C. […] at atmospheric pressure with a relative humidity of 65%, in total darkness, to determine the combined effect of wounding stress and glyphosate application on the accumulation of SA and PC.

carrots (Daucus carota) [2] = assay: Overproduction of SA and PC by wounding stress and sprayed glyphosate 482 g/L in carrot tissue (Example 6)
Procedure: as §1, §2, §3
Finally, the treated grated material was incubated at 25° C. for 24 hours at atmospheric pressure with a relative humidity of 65%, in total darkness, to determine the combined effect of wounding stress and glyphosate application on the accumulation of SA and PC.

carrots (Daucus carota) [3] = assay: Effect of drying on SA and PC in wounding-stressed, glyphosate-sprayed carrot tissue (Example 7); details: for Increase in concentration in dehydrated glyphosated grated material stored for 24 hours: vs grated carrot prior to storage (0 hours)
Procedure: The plant material used in this example comprised carrots (Daucus carota) obtained from a local supermarket (Monterrey, N. L., Mexico), which were washed and disinfected with chlorinated water in a concentration of 200 ppm, pH 6.5, in a ratio of 1:3 kg of plant material:liters of chlorinated water, for 10 min. This stage was carried out by grating the carrot with a commercial vegetable grater.

carrots (Daucus carota) [4] = assay: HPLC-PDA quantification of SA and individual phenolic compounds in grated carrot sprayed with glyphosate at different concentrations (Example 5); details: after 24 hours' storage; estimated from HPLC-PDA
carrots (Daucus carota) [5] = assay: Effect of drying on accumulation of SA in wounding-stressed grated carrot (Example 2); details: vs grated carrot prior to storage (0 hours)
Procedure: as §1
(§4) This stage was carried out by grating the carrot with a commercial vegetable grater. Stressed grated carrots having a diameter of 0.7 cm were obtained. […]
(§5) The SA extracts were analyzed following a method reported by Zelaya, I. A., Anderson, J. A., Owen, M. D. and Landes, R. D. Evaluation of spectrophotometric and HPLC methods for shikimic acid determination in plants: models in glyphosate-resistant and susceptible crops. […] The SA oxidized through the effect of the reaction was detected at 382 nm using a microplates reader (Synergy HT, Bio-Tek Instruments Inc., Winooski, Vt., USA). A standard curve for SA was constructed (1-1000 μM) to quantify the compound. The SA concentration was expressed as mg per kg of carrots in dry base (DB). The moisture content in the samples was determined by the method of drying in a stove (AACC 44-15A).

carrots (Daucus carota) [6] = assay: Effect of wounding stress on accumulation of SA in grated carrot during storage (Example 1); details: vs grated carrot prior to storage (0 hours); 25° C., no glyphosate
Procedure: as §1
Stage a) The previously washed and disinfected carrots were subjected to post-harvest abiotic stress.
as §2
Stage b) Incubation of the grated carrot stressed in a) to encourage the production and accumulation of SA and PC. […]
The SA was extracted from the horticultural crop using two different processes based on the method of detection and quantification which was to be used (spectrophotometry or chromatography). […]
The SA extracts were analyzed following a method reported by Zelaya, I. A., Anderson, J. A., Owen, M. D. and Landes, R. D. Evaluation of spectrophotometric and HPLC methods for shikimic acid determination in plants: models in glyphosate-resistant and susceptible crops. […] The SA oxidized through the effect of the reaction was detected at 382 nm using a microplates reader (Synergy HT, Bio-Tek Instruments Inc., Winooski, Vt., USA). A standard curve for SA was constructed (1-1000 μM) to quantify the compound. […]

carrots (Daucus carota) [7] = assay: Effect of method of application (submergence or spraying) of glyphosate solution on SA accumulation in grated carrot (Example 4); details: glyphosate 482 g/L, 24 hours at 25° C.
Text: This difference is attributed to the removal of signal molecules which induce the response to the wounding as part of the submergence process. The (at least partial) removal of extracellular adenosine triphosphate (eATP, produced by the wounding stress effect) occurs in the submerged material, and this may be related to lesser generation of reactive oxygen species (ROS), thus reducing the yield of SA in comparison with application by spraying. Abiotic wounding stress activates the metabolic pathways involved in the production of phenolic compounds while the application of glyphosate makes it possible to block the flow of SA to the production of other compounds, thus bringing about an accumulation of SA in the horticultural crop. Thus the wounded carrots have been treated with a solution of glyphosate (0-482 g/L) using one of the two different methods of application (submergence and spraying), the spraying method being preferred because of its better yields, and stored for 24 hours to determine the combined effect of wounding stress and glyphosate application on the accumulation of SA and PC. In the first (submerged) method of application the grated material was submerged in a ratio of 1:2 to 1:4 (kg of plant material:liters of glyphosate solution), in such a way that said material was wholly submerged in the glyphosate solution. […]

carrots (Daucus carota) [8] = assay: Effect of grinding on accumulation of SA in wounding-stressed grated carrot (Example 3); details: vs grated carrot prior to storage (0 hours)
Procedure: as §1, §4, §5

[9] = vs grated carrot before storage (0 hours)
[10] = sprayed 482 g/L glyphosate, vs control samples (0 hours)

SMILES | Increase in content in the 482 g/L glyphosate treatment (carrots (Daucus carota) [1]; vs control samples at 24 hours) [%] | Increase in concentration in dehydrated glyphosated grated material stored for 24 hours (carrots (Daucus carota) [1]; [9]) [%] | Increase in concentration on spraying a concentrated solution of glyphosate onto carrot tissue stressed by wounding (carrots (Daucus carota) [2]) | Increase in content in the 482 g/L glyphosate treatment (carrots (Daucus carota) [2]; vs control samples at 24 hours) [%] | Increase in content in the 482 g/L glyphosate treatment (carrots (Daucus carota) [3]; vs control samples at 24 hours) [%] | Increase in concentration in dehydrated glyphosated grated material stored for 24 hours (carrots (Daucus carota) [3]) [%] | Increase in concentration after 24 hours of storage (carrots (Daucus carota) [1]; [10]) [%] | Increase in concentration in glyphosated powder stored for 24 hours (carrots (Daucus carota) [1]; [9]) [%] | Increase in concentration after 24 hours of storage (carrots (Daucus carota) [2]; [10]) [%] | Increase in concentration in grated carrot not sprayed with glyphosate (carrots (Daucus carota) [4]) [%] | Increase in concentration after 24 hours' storage (carrots (Daucus carota) [3]; [10]) [%] | Increase in concentration in dehydrated nutraceutical grated material stored for 24 hours (carrots (Daucus carota) [5]; after drying) [%] | Increase in concentration in grated carrot stored for 24 hours (carrots (Daucus carota) [5]; no glyphosate) [%] | Increase in concentration in grated carrot stored for 24 hours (carrots (Daucus carota) [6]) [%] | Increase in accumulation, grated carrot sprayed with glyphosate vs submerged samples (carrots (Daucus carota) [7]) | Increase in concentration in nutraceutical powder stored for 24 hours (carrots (Daucus carota) [8]; after drying and grinding) [%] | Increase in concentration in grated carrot stored for 24 hours (carrots (Daucus carota) [8]; no glyphosate) [%]
O=C(/C=C/c1ccc(O)c(O)c1)O[C@@H]1C[C@](O)(C(=O)O)C[C@@H](O)[C@H]1O (single isomer, unassigned) [CA, chlorogenic acid] | ~1940 | ~11620 | > 5000% | ~1980 | ~1930 | ~1700 | – | – | – | – | – | – | – | – | – | – | –
O=C(O)C1=C[C@@H](O)[C@@H](O)[C@H](O)C1 (single isomer, unassigned) [SA, shikimic acid] | – | – | more than 1000% | – | – | ~1550 | ~1720 | ~1470 | ~1735 | ~77 | ~1766 | ~40 | ~45 | ~50 | ~44% and ≈ 44% | ~37 | ~48
